Laboratory results reported in US20020165148A1, “Analogues and derivatives of gastrin releasing peptide (GRP)” (priority 2000, published 2002).

Legend:
DPP IV = molecular target: T1, DPP IV (Rattus norvegicus, UniProt P14740); test: inactivation by DPP IV cleavage / half-life in plasma; type: in vitro ADME
T1 construct: cleavage by the enzyme DPP IV in plasma; from tissue; host or cells: plasma

diabetic rats = test: injection of GRP into diabetic rats, clearance of blood glucose; type: in vivo
pancreatic islet cells = pancreatic islet cells in vitro; cited from earlier work

T1 sequence (P14740 37-767 limits assumed): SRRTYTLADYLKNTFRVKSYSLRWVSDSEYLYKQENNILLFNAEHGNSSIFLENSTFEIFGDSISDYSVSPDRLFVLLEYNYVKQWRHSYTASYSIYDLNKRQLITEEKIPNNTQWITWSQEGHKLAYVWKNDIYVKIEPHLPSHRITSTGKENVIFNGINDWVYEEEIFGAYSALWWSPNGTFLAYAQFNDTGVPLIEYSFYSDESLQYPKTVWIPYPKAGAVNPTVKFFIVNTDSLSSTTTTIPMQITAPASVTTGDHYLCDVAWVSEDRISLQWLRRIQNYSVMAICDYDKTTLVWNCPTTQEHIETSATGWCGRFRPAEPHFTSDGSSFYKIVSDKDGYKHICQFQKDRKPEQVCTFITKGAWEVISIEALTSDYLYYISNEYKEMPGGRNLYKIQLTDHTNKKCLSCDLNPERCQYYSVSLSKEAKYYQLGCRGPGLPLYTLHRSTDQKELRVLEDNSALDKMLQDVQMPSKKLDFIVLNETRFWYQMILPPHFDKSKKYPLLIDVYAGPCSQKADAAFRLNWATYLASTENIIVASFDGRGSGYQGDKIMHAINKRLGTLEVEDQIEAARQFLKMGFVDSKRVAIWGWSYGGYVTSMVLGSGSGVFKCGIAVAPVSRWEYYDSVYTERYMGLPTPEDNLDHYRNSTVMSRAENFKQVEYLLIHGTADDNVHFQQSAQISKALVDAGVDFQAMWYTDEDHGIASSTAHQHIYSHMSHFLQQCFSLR

CSCC[C@H](NC(=O)[C@H](CC(C)C)NC(=O)[C@H](Cc1c[nH]cn1)NC(=O)CNC(=O)[C@@H](NC(=O)[C@H](C)NC(=O)[C@H](Cc1c[nH]c2ccccc12)NC(=O)[C@H](Cc1c[nH]cn1)NC(=O)[C@H](CC(N)=O)NC(=O)CNC(=O)[C@H](CCCNC(=N)N)NC(=O)[C@@H]1CCCN1C(=O)[C@H](Cc1ccc(O)cc1)NC(=O)[C@H](CCSC)NC(=O)[C@H](CCCCN)NC(=O)[C@@H](NC(=O)[C@H](CC(C)C)NC(=O)[C@@H](NC(=O)[C@@H](NC(=O)CNC(=O)CNC(=O)CNC(=O)[C@H](C)NC(=O)[C@@H]1CCCN1C(=O)[C@H](CC(C)C)NC(=O)[C@@H]1CCCN1C(=O)[C@@H](N)C(C)C)[C@@H](C)O)C(C)C)[C@@H](C)O)C(C)C)C(N)=O [GRP]
inactivation as a result of cleavage by DPP IV in plasma (DPP IV): rapid inactivation | duration of glucose-lowering action (diabetic rats; in vivo, diabetic rats): only for a short period of time | clearance of blood glucose (diabetic rats; injection into diabetic rats): markedly accelerated clearance of blood glucose | potentiation of glucose-induced insulin secretion (pancreatic islet cells): potentiate glucose-induced insulin secretion
